According to publication PMC11218446, “Antibacterial efficacy and membrane mechanism of action of the Serratia-derived non-ionic lipopeptide, serrawettin W2-FL10” (Microbiology Spectrum, 2024):
Values after ≈ are worked out from the molar mass of the structure shown. Where two headings read alike, the source gives them in different places.

Assays:
[1] = Oligomer detection by ESI-HRMS; format: physicochemical; settings: MaxEnt 3 mass spectrum (Fig. 1C)
S. aureus ATCC 25923 [2] = format: cell-based, Staphylococcus aureus; settings: for ICF / IC50 ± SE / MIC ± SE: resazurin
From the text: Based on the broth microdilution assay results for W2-FL10 and melittin, the S. aureus ATCC 25923 (reference), S. aureus RN4220 (laboratory; MSSA), or methicillin-resistant S. aureus Xen 30 (clinical; MRSA) strains were selected for further antibacterial studies. Resazurin (also referred to as Alamar Blue) is a blue, non-fluorescent dye that can be reduced to resorufin (a pink, fluorescent compound) by metabolically active cells. The dye can thus be used as a quantitative indicator of cell viability ([52]). Therefore, a broth microdilution assay coupled with resazurin [prepared to a stock solution of 0.3 mg/mL in PBS; ([53])] was used to determine the influence of cations (Mg^2+ and Ca^2+), commercial LTA of S. aureus and DOPG on the potency of W2-FL10 against S. aureus ATCC 25923, S. aureus RN4220 and MRSA Xen 30 as described by Wu et al. ([54]).
For investigating the influence of cations on the antibacterial potency of W2-FL10, a clear 96-well plate was prepared with W2-FL10 and air dried as described in the “Antibacterial activity: broth microdilution assay” section. The S. aureus strains were inoculated into MHB or CA-MHB, grown to mid-log phase (OD600 of 0.5–0.6), and diluted to OD600 of 0.4. A 1:20 dilution of the test strain (final concentration of ∼10^5 CFU/mL) was prepared and 100 µL was dispensed into each well (final concentration of W2-FL10 at 1.56 to 25 µg/mL). Sterile broth (i.e., MHB or CA-MHB) and the OD-adjusted inoculum were included in the assay as a positive control, while sterile broth (i.e., MHB or CA-MHB) was included as a sterility control. The plate was incubated for 24 h at 37°C.
Similarly, the possible interaction and binding of LTA of S. aureus and DOPG (both at 1 mg/mL in 10% EtOH) with the lipopeptide W2-FL10 was investigated ([54]). Briefly, a clear 96-well plate was prepared with W2-FL10 and air dried as described in the “Antibacterial activity: broth microdilution assay” section. Thereafter, 10 µL of LTA from S. aureus or DOPG was dispensed into the respective wells. The S. aureus strains were grown to mid-log phase in MHB (OD600 of 0.5–0.6) and diluted to OD600 of 0.4. A 1:20 dilution of test strain (final concentration of ∼10^5 CFU/mL) was prepared, 100 µL was dispensed into each well (final concentration of W2-FL10 at 3.13 to 100 µg/mL), and the plate was incubated for 24 h at 37°C. Sterile broth, the OD-adjusted inoculum, and the respective LTA or DOPG were included in the assay as a positive control, while sterile broth and LTA or DOPG were included as a sterility control.
After incubation of both plates, 10 µL of resazurin (0.3 mg/mL) was added to each well and the plate was incubated at 37°C for 1 h. Fluorometric readings of the experimental plates were conducted using a Tecan Spark 10M Multimode Microplate Reader at 560 nm excitation wavelength and 590 nm emission wavelength. For all resazurin assays, the percentage inhibition was calculated as described by van Rensburg et al. ([53]). All experiments were performed in triplicate, with independent biological duplicates. […] Dose-response curves (nonlinear regression using equation 1) were processed as described by Rautenbach et al. ([17]) (also see description above), and IC50 values were deduced from the best-fit sigmoidal curves (R^2 ≥ 0.98). Statistical analyses were done by comparing W2-FL10 IC50, in the presence of Ca^2+ and Mg^2+, in the presence of DOPG, and in the presence of LTA toward the control condition each of the three S. aureus strains using one-way analysis of variance (ANOVA) with Bonferroni’s post hoc test.

S. aureus RN4220 = assay: Membrane depolarization assay, DiSC3(5); format: cell-based, Staphylococcus aureus
Protocol: (§1) The membrane depolarization capability (ability to disrupt membrane potential) of the W2-FL10 against S. aureus ATCC 25923, S. aureus RN4220, or MRSA Xen 30 was determined using the voltage-sensitive fluorescent probe, DiSC3(5) ([20]). Briefly, black 96-well plates were prepared with W2-FL10 at 12.5 µg/mL and 25 µg/mL, while 4 and 8 µg/mL of melittin were used as a positive depolarization control, and the plates were air dried as described in the “Antibacterial activity: broth microdilution assay” section. The S. aureus strains were inoculated into MHB and grown to the mid-log phase (OD600 of 0.5–0.6). Cells were harvested by centrifugation at 3,000 rpm for 10 min and resuspended in HEPES buffer (5 mM, pH 7.4, containing 20 mM glucose; 100 mM KCl) to OD600 of 0.05. Thereafter, DiSC3(5) (stock concentration of 400 µM in 100% DMSO) was added to the cell suspension to a final concentration of 0.4 µM, and cells were incubated in the dark at room temperature for 40 min. Cell suspensions (100 µL) were then dispensed into the wells of the black 96-well plate. Sterile broth and the OD-adjusted inoculum with DiSC3(5) were included as a non-fluorescent control, sterile broth with DiSC3(5) was included as a sterility control, and melittin was included as membrane depolarization control. All the tests were performed in triplicate, with independent duplicates. Fluorometric readings of the plate were conducted at 1 min intervals over 12 min (readings began 60 s after cells were added to the plates) using a Tecan Spark at 622 nm excitation wavelength and 670 nm emission wavelength. Statistical comparison of the kinetic trends elicited by the treatment with peptide with the control (cells alone) was done using two-way ANOVA with Bonferroni’s post hoc test.

S. aureus ATCC 25923 [3] = assay: Membrane depolarization assay, DiSC3(5); format: cell-based, Staphylococcus aureus
Protocol: as §1

MRSA Xen 30 = assay: Membrane depolarization assay, DiSC3(5); format: cell-based, Staphylococcus aureus
Protocol: as §1

## CCCCCCCC1CC(=O)N[C@H](CC(C)C)C(=O)N[C@@H](CO)C(=O)N[C@@H]([C@@H](C)O)C(=O)N[C@H](Cc2ccccc2)C(=O)N[C@@H](CC(C)C)C(=O)O1 (some centres unmarked) [W2-FL10, serrawettin W2-FL10]
[1]
  oligomers detected: dimers, trimers, tetramers, and pentamers
S. aureus ATCC 25923 [2]; DOPG 100 µg/mL vs control, P < 0.001
  increase in the IC50 in the presence of DOPG: twofold
S. aureus ATCC 25923 [2]; Ca2+ and Mg2+ (CA-MHB)
  ICF: 2.2
S. aureus ATCC 25923 [2]; Ca2+ and Mg2+ (CA-MHB), n = 4
  IC50 ± SE: 8.4 µg/mL (≈ 11.5 µM)
  MIC ± SE: 12.5 ± 0.0 µg/mL (≈ 17.1 µM)
S. aureus ATCC 25923 [2]; Control (MHB)
  ICF: 4.3
S. aureus ATCC 25923 [2]; Control (MHB), 24 h 37°C, n = 4
  MIC ± SE: 21.9 ± 3.1 µg/mL (≈ 29.9 µM)
S. aureus ATCC 25923 [2]; Control (MHB), n = 4
  IC50 ± SE: 10.6 µg/mL (≈ 14.5 µM)
S. aureus ATCC 25923 [2]; DOPG 100 µg/mL
  ICF: 6.3
S. aureus ATCC 25923 [2]; DOPG 100 µg/mL, n = 4
  IC50 ± SE: 22.5 µg/mL (≈ 30.7 µM)
  MIC ± SE: 56.3 ± 15.7 µg/mL (≈ 76.9 µM)
S. aureus ATCC 25923 [2]; LTA 100 µg/mL
  ICF: 6.3
S. aureus ATCC 25923 [2]; LTA 100 µg/mL, n = 4
  IC50 ± SE: 16.6 µg/mL (≈ 22.7 µM)
S. aureus ATCC 25923 [2]; LTA of S. aureus 100 µg/mL, n = 3
  MIC ± SE: 41.7 ± 8.3 µg/mL (≈ 57 µM)
S. aureus RN4220; 12.5 µg/mL, up to 720 s (Fig. 4C)
  increase in DiSC3(5) fluorescent signal, in words: negligible
S. aureus RN4220; 25 µg/mL
  time at which the DiSC3(5) fluorescent signal doubled: 480 s
S. aureus ATCC 25923 [3]; 12.5 µg/mL, up to 720 s (Fig. 4A)
  increase in DiSC3(5) fluorescent signal, in words: negligible
S. aureus ATCC 25923 [3]; 25 µg/mL
  time at which the DiSC3(5) fluorescent signal doubled: 660 s
MRSA Xen 30; 12.5 µg/mL, up to 720 s
  depolarization, in words: appreciable depolarization
MRSA Xen 30; 25 µg/mL
  time at which the DiSC3(5) fluorescent signal doubled: 420 s
